In patent US7736630B2, “Products for preventing penetration into the skin” (priority 2002, dated 2010):
Where two headings read alike, the source gives them in different places.

Test: Skin permeation and skin accumulation in Franz diffusion cells
Assay type: in vitro ADME, nude mice (CD1)
Protocol: The permeation of pure OMC and Di(4-methoxycinnamoyl)jojobadiol (two —OH groups esterified) was measured by using dorsal skin of male, 7 weeks old, nude mice (CD1, Weizmann Institute, Israel).
The experiments were carried out for 24 hours at 37° C. in Franz diffusion cells. Samples of 200 μl were taken at 1, 2, 4, 6, 8 and 24 hours. 10 mg of each compound were applied on each skin (area—1.77 cm^2). The receiver compartment contained EtOH:H2O (1:1). At the end of the experiment the skin was cleaned and the skins were extracted with 10 ml EtOH. The amounts of the OMC and derivative Di(4-methoxycinnamoyl)jojobadiol were assayed by HPLC.

Compound	penetration/permeation across the skin (in words)	amount penetrated as % of the dose applied on the skin (male, CD1 nude, mouse, 24 h) [%]	amount which penetrated into the skin at the end of permeation experiment (male, CD1 nude, mouse, 24 h) [µg]	amount accumulated in the skin at the end of experiment (10 mg on 1.77 cm^2 skin, 24 hours, 37° C., skin extracted with 10 ml EtOH, FIG. 7) [µg]	penetration/permeation across the skin (in words) (24 hours in vitro permeation, lowest detectable concentration of the derivative by HPLC 0.8 μg/ml, FIG. 6)	penetration/permeation across the skin (in words) (24 hours in vitro permeation, lowest detectable concentration of the derivative by HPLC 0.8 μg/ml, FIG. 6, listed as di(4-methoxy-cinnamoyl)jojobadiol)	skin accumulation, OMC compared with Di(4-methoxycinnamoyl)jojobadiol (end of 24 hours experiment, FIG. 7)
CCCCC(CC)COC(=O)C=Cc1ccc(OC)cc1 (stereo not shown) [OMC, octylmethoxycinnamate, reference compound]	permeates to the skin	8.76	876 ± 235	–	–	–	–
Di(4-methoxycinnamoyl)jojobadiol	–	–	–	900 ± 359	no penetration	does not	about third of the amount of the OMC
